Patent US5693661A (priority 1995, dated 1997)
≈ marks a conversion by molar mass, not a printed value.

Key:
Type in all cases: cell-based
PV-1 (poliovirus) = assay: microbe, parasite or virus in culture; conditions: Enterovirus C; 72 hours at 37° C.; read-out: IC50, PV-1 (50 percent inhibition of plaque formation)
RhV-14 (Rhinovirus) = assay: microbe, parasite or virus in culture; conditions: 120 hours at 32° C.; for IC50: Enterovirus, 120 h, read-out: IC50, RhV-14 (50 percent inhibition of plaque formation)
RhV-16 (Rhinovirus) = assay: microbe, parasite or virus in culture; conditions: Enterovirus; 120 hours at 32° C.; read-out: IC50, RhV-16 (50 percent inhibition of plaque formation)
RhV-2 (Rhinovirus) = assay: microbe, parasite or virus in culture; conditions: Enterovirus; 120 hours at 32° C.; read-out: IC50, RhV-2 (50 percent inhibition of plaque formation)
RhV-1 (Rhinovirus) = assay: microbe, parasite or virus in culture; conditions: Enterovirus; 120 hours at 32° C.; read-out: IC50, RhV-1 (50 percent inhibition of plaque formation)
CS-B3 (Coxsackie virus) = assay: organism not typed; conditions: 72 hours at 37° C.; read-out: IC50, CS-B3 (50 percent inhibition of plaque formation)
[1] = tested on: CS-A21C (Coxsackie virus); assay: organism not typed; conditions: 72 hours at 37° C.; read-out: IC50, CS-A21C (50 percent inhibition of plaque formation)

| SMILES | IC50 (PV-1 (poliovirus)) | IC50 (RhV-14 (Rhinovirus)) | other results |
| --- | --- | --- | --- |
| C#C/C=C(/c1ccccc1)c1ccc2ncn(S(=O)(=O)C(C)C)c2c1 [12 (cis)] | 50 µg/mL (≈ 143 µM) | – | – |
| C#CC=C(c1cccc(F)c1)c1ccc2nc(N)n(S(=O)(=O)N(C)C)c2c1 [16B (trans)] | – | 0.038 µg/mL (≈ 0.0988 µM) | – |
| C#C/C=C(\c1ccc(F)cc1)c1ccc2nc(N)n(S(=O)(=O)C(C)C)c2c1 [1B (trans)] | – | 0.101 µg/mL (≈ 0.263 µM) | IC50 (RhV-16 (Rhinovirus)): 0.032 µg/mL (≈ 0.0835 µM); IC50 (RhV-2 (Rhinovirus)): 0.091 µg/mL (≈ 0.237 µM); IC50 (RhV-1 (Rhinovirus)): 0.078 µg/mL (≈ 0.203 µM) |
| C#CC=C(c1ccc2nc(N)n(S(=O)(=O)C(C)C)c2c1)c1ccccc1F [21 (trans)] | – | – | IC50, RhV-14 (50 percent inhibition of plaque formation) (RhV-14 (Rhinovirus)): 0.078 µg/mL |
| C#C/C=C(\c1cccc(C(F)(F)F)c1)c1ccc2nc(N)n(S(=O)(=O)C(C)C)c2c1 [14 (trans)] | – | 0.331 µg/mL (≈ 0.764 µM) | – |
| C#CC=C(c1ccc([S+](C)[O-])cc1)c1ccc2nc(N)n(S(=O)(=O)C(C)C)c2c1 (stereo not drawn) [30 (trans)] | 0.07 µg/mL (≈ 0.164 µM) | – | – |
| C#CC=C(c1ccc2nc(N)n(S(=O)(=O)C(C)C)c2c1)c1cc(F)ccc1F [26 (trans)] | – | 0.115 µg/mL (≈ 0.286 µM) | IC50 (RhV-16 (Rhinovirus)): 0.099 µg/mL (≈ 0.247 µM); IC50 (RhV-2 (Rhinovirus)): 0.079 µg/mL (≈ 0.197 µM); IC50 (RhV-1 (Rhinovirus)): 0.096 µg/mL (≈ 0.239 µM) |
| C#C/C=C(\c1ccc(SC)cc1)c1ccc2nc(N)n(S(=O)(=O)C(C)C)c2c1 [4 (trans)] | 0.5 µg/mL (≈ 1.21 µM) | – | – |
| C#CC=C(c1ccc(OC(F)(F)F)cc1)c1ccc2nc(N)n(S(=O)(=O)C(C)C)c2c1 [28 (trans)] | – | – | IC50 (RhV-2 (Rhinovirus)): 0.535 µg/mL (≈ 1.19 µM) |
| C#C/C=C(\c1ccccc1)c1ccc2ncn(S(=O)(=O)C(C)C)c2c1 [12 (trans)] | 19.2 µg/mL (≈ 54.8 µM) | – | – |
| C#C/C=C(\c1ccc(OC)cc1)c1ccc2nc(N)n(S(=O)(=O)C(C)C)c2c1 [3 (trans)] | 0.21 µg/mL (≈ 0.531 µM) | 0.059 µg/mL (≈ 0.149 µM) | IC50 (RhV-16 (Rhinovirus)): 0.029 µg/mL (≈ 0.0733 µM); IC50 (RhV-2 (Rhinovirus)): 0.041 µg/mL (≈ 0.104 µM); IC50 (RhV-1 (Rhinovirus)): 0.03 µg/mL (≈ 0.0759 µM) |
| C#CC=C(c1cc(F)cc(F)c1)c1ccc2nc(N)n(S(=O)(=O)C(C)C)c2c1 [29 (trans)] | – | 0.236 µg/mL (≈ 0.588 µM) | IC50 (RhV-16 (Rhinovirus)): 0.261 µg/mL (≈ 0.65 µM); IC50 (RhV-2 (Rhinovirus)): 0.176 µg/mL (≈ 0.438 µM); IC50 (RhV-1 (Rhinovirus)): 0.124 µg/mL (≈ 0.309 µM) |
| C#C/C=C(\c1ccc(C(C)C)cc1)c1ccc2nc(N)n(S(=O)(=O)C(C)C)c2c1 [11 (trans)] | 0.088 µg/mL (≈ 0.216 µM) | – | – |
| C#CC=C(c1ccc2nc(N)n(S(=O)(=O)C(C)C)c2c1)c1ccccc1F [21 (cis)] | – | – | IC50, RhV-14 (50 percent inhibition of plaque formation) (RhV-14 (Rhinovirus)): 0.478 µg/mL |
| C#CC=C(c1ccc(OC)c(F)c1)c1ccc2nc(N)n(S(=O)(=O)C(C)C)c2c1 [25 (cis)] | – | – | IC50, RhV-14 (50 percent inhibition of plaque formation) (RhV-14 (Rhinovirus)): 0.428 µg/mL |
| CC(C)S(=O)(=O)n1c(N)nc2ccc(/C(=C/C#C[Si](C)(C)C)c3ccc(F)cc3)cc21 [1A (trans)] | – | 10.9 µg/mL (≈ 23.9 µM) | – |
| C#CC=C(c1ccc(OC)c(F)c1)c1ccc2nc(N)n(S(=O)(=O)C(C)C)c2c1 [25 (trans)] | – | – | IC50 (RhV-16 (Rhinovirus)): 0.06 µg/mL (≈ 0.145 µM); IC50 (RhV-2 (Rhinovirus)): 0.054 µg/mL (≈ 0.131 µM); IC50, RhV-14 (50 percent inhibition of plaque formation) (RhV-14 (Rhinovirus)): 0.065 µg/mL; IC50 (RhV-1 (Rhinovirus)): 0.049 µg/mL (≈ 0.119 µM) |
| C#CC=C(c1ccc(N(C)C)cc1)c1ccc2nc(N)n(S(=O)(=O)C(C)C)c2c1 [15B (trans)] | – | 0.1 µg/mL (≈ 0.245 µM) | – |
| C#C/C=C(\c1ccccc1)c1cc2c(cc1F)nc(N)n2S(=O)(=O)C(C)C [5 (trans)] | – | 1.9 µg/mL (≈ 4.96 µM) | – |

| SMILES | IC50 (PV-1 (poliovirus)) | IC50 (RhV-14 (Rhinovirus)) | other results |
| --- | --- | --- | --- |
| C#CC=C(c1ccc(S(C)(=O)=O)cc1)c1ccc2nc(N)n(S(=O)(=O)C(C)C)c2c1 [31 (trans)] | 0.05 µg/mL (≈ 0.113 µM) | – | – |
| C#C/C=C(/c1ccccc1)c1ccc2nc(N)n(S(=O)(=O)C(C)C)c2c1 [2C (cis)] | 0.19 µg/mL (≈ 0.52 µM) | – | IC50 (CS-B3 (Coxsackie virus)): 0.055 µg/mL (≈ 0.15 µM) |
| C#CC=C(c1ccc(F)c(F)c1)c1ccc2nc(N)n(S(=O)(=O)C(C)C)c2c1 [20 (trans)] | – | 0.155 µg/mL (≈ 0.386 µM) | – |
| C#C/C=C(\c1ccc(C)c(C)c1)c1ccc2nc(N)n(S(=O)(=O)C(C)C)c2c1 [8 (trans)] | 0.1 µg/mL (≈ 0.254 µM) | – | – |
| C#C/C=C(/c1ccccc1)c1ccc2nc(N)n(-c3ccc(OC)cc3)c2c1 [9 (cis)] | 0.52 µg/mL (≈ 1.42 µM) | – | – |
| C#CC=C(c1cccc(F)c1)c1ccc2nc(N)n(S(=O)(=O)C(C)C)c2c1 [24 (trans)] | – | 0.088 µg/mL (≈ 0.229 µM) | IC50 (RhV-16 (Rhinovirus)): 0.057 µg/mL (≈ 0.149 µM); IC50 (RhV-2 (Rhinovirus)): 0.069 µg/mL (≈ 0.18 µM); IC50 (RhV-1 (Rhinovirus)): 0.027 µg/mL (≈ 0.0704 µM) |
| CC(C)S(=O)(=O)n1c(N)nc2ccc(/C(=C\C#C[Si](C)(C)C)c3ccc(F)cc3)cc21 [1A (cis)] | – | 3.9 µg/mL (≈ 8.56 µM) | – |
| C#CC=C(c1cccc(F)c1)c1ccc2nc(N)n(S(=O)(=O)N(C)C)c2c1 [17 (trans)] | – | – | IC50, RhV-14 (50 percent inhibition of plaque formation) (RhV-14 (Rhinovirus)): 0.071 µg/mL |
| C#C/C=C(\c1ccc(C(F)(F)F)cc1)c1ccc2nc(N)n(S(=O)(=O)C(C)C)c2c1 [13 (trans)] | 0.12 µg/mL (≈ 0.277 µM) | – | – |
| C#C/C=C(/c1ccc(C(C)C)cc1)c1ccc2nc(N)n(S(=O)(=O)C(C)C)c2c1 [11 (cis)] | 2.74 µg/mL (≈ 6.72 µM) | – | – |
| C#CC=C(c1cccc(Cl)c1)c1ccc2nc(N)n(S(=O)(=O)C(C)C)c2c1 [27 (trans)] | – | 0.253 µg/mL (≈ 0.633 µM) | IC50 (RhV-16 (Rhinovirus)): 0.185 µg/mL (≈ 0.463 µM); IC50 (RhV-2 (Rhinovirus)): 0.123 µg/mL (≈ 0.308 µM); IC50 (RhV-1 (Rhinovirus)): 0.129 µg/mL (≈ 0.323 µM) |
| C#CC=C(c1ccccc1)c1ccc2nc(N)n(S(=O)(=O)C(C)C)c2c1F [22 (trans)] | – | 1.9 µg/mL (≈ 4.96 µM) | – |
| C#CC=C(c1ccccc1)c1cc2c(cc1C)nc(N)n2S(=O)(=O)C(C)C [23 (trans)] | – | 3.9 µg/mL (≈ 10.3 µM) | – |
| C#CC=C(c1ccc(C)cc1)c1ccc2nc(N)n(S(=O)(=O)C(C)C)c2c1 [19 (trans)] | – | 0.078 µg/mL (≈ 0.206 µM) | – |
| CC#CC=C(c1cccc(F)c1)c1ccc2nc(N)n(S(=O)(=O)C(C)C)c2c1 [33D (trans)] | – | 0.19 µg/mL (≈ 0.478 µM) | – |
| C#C/C=C(\c1ccccc1)c1ccc2nc(N)n(-c3ccc(OC)cc3)c2c1 [9 (trans)] | 0.11 µg/mL (≈ 0.301 µM) | – | – |
| C#CC=C(c1ccc(F)c(F)c1)c1ccc2nc(NS(C)(=O)=O)n(S(=O)(=O)C(C)C)c2c1 [18 (trans)] | – | 1.88 µg/mL (≈ 3.92 µM) | – |
| C#C/C=C(\c1ccccc1)c1ccc2nc(N)n(S(=O)(=O)C(C)C)c2c1 [2C (trans)] | 0.035 µg/mL (≈ 0.0958 µM) | 0.081 µg/mL (≈ 0.222 µM) | IC50 (RhV-16 (Rhinovirus)): 0.039 µg/mL (≈ 0.107 µM); IC50 (RhV-2 (Rhinovirus)): 0.065 µg/mL (≈ 0.178 µM); IC50 (RhV-1 (Rhinovirus)): 0.033 µg/mL (≈ 0.0903 µM); IC50 [1]: 0.32 µg/mL (≈ 0.876 µM) |
